Literature values in PubChem BioAssay AID1259410 (Chemical Carcinogenesis Research Information System (CCRIS), 2018).

System: rodent tumor promotion studies, tumor incidence
Experiment: CCRIS tumor promotion studies

## C#CCN(C)Cc1ccccc1
Carcinogen: AZOXYMETHANE, 25843-45-2, Doses [Carcinogen]: 7.4 MG/KG BW IN 0.9% SALINE 1/WK FOR 10 WK, Doses [Promoter]: 0, 50 MG/KG BW 1/2 D FOR 35 WK (STUDY DURATION: 35 WK), Route [Carcinogen]: SUBCUTANEOUS, Route [Promoter]: SUBCUTANEOUS, Species: RAT, Strain/Sex: WISTAR/MALE
  outcome: colon: tumor

## CCCCCCCCCC(=O)O[C@@H]1[C@@H](C)[C@@]2(O)[C@@H](C=C(CO)C[C@]3(O)C(=O)C(C)=C[C@@H]23)[C@@H]2C(C)(C)[C@]12OC(=O)CCCCCCCCC
Carcinogen: 7,12-DIMETHYLBENZ(A)ANTHRACENE, Doses [Carcinogen]: TOP, Route [Carcinogen]: DERMAL, Route [Promoter]: DERMAL, Species: MOUSE, Strain/Sex: MALE,FEMALE
  outcome: forestomach

## C#C[C@]1(O)CC[C@H]2[C@@H]3CCc4cc(O)ccc4[C@H]3CC[C@@]21C
Carcinogen: 3,2'-DIMETHYL-4-AMINOBIPHENYL, 13394-86-0, Doses [Carcinogen]: 100 MG/KG 1/WK FOR 20 WK, Doses [Promoter]: 0, 0.75 PPM IN DIET FOR DURATION OF STUDY (STUDY DURATION: 50 WK), Route [Carcinogen]: SUBCUTANEOUS, Route [Promoter]: ORAL, Species: HAMSTER, Strain/Sex: SYRIAN/FEMALE
  outcome: gallbladder: adenoma or adenocarcinoma
Carcinogen: 3,2'-DIMETHYL-4-AMINOBIPHENYL, 13394-86-0, Doses [Carcinogen]: 100 MG/KG 1/WK FOR 20 WK, Doses [Promoter]: 0, 0.75 PPM IN DIET FOR DURATION OF STUDY (STUDY DURATION: 50 WK), Route [Carcinogen]: SUBCUTANEOUS, Route [Promoter]: ORAL, Species: HAMSTER, Strain/Sex: SYRIAN/MALE
  outcome: gallbladder: adenoma or adenocarcinoma
Carcinogen: 7,12-DIMETHYLBENZ[A]ANTHRACENE (DMBA) [57-97-6]AND N-BIS(2-HYROXYPROPYL)NITROSOSAMINE (DHPN) [53609-64-6], Doses [Carcinogen]: DMBA-SINGLE DOSE OF 50 MG/KG BW AT 7 WKS OF AGE, DHPN- 0.2% IN WATER WKS 6-14 OF AGE (STUDY DURATION: 27 WKS FOR MALES;, Doses [Carcinogen]: DMBA-SINGLE DOSE OF 50 MG/KG BW AT 7 WKS OF AGE, DHPN- 0.2% IN WATER WKS 6-14 OF AGE (STUDY DURATION: 27 WKS FOR MALES;, Doses [Promoter]: 0, 0.2, 1% IN DIET (STUDY DURATION: 27 AND 36 WKS FOR MALES AND FEMALES RESPECTIVELY), Doses [Promoter]: 0, 0.2, 1% IN DIET (STUDY DURATION: 27 AND 36 WKS FOR MALES AND FEMALES RESPECTIVELY), Route [Carcinogen]: ORAL (DMBA, GAVAGE; DHPN, DRINKING WATER), Route [Promoter]: MATERNAL MILK TO 3 WKS OF AGE, DIET FROM WKS 3 TO 6 OF AGE, Species: RAT, Strain/Sex: F344/FEMALE, MALE
  outcome: negative
Carcinogen: DIETHYLNITROSAMINE, 55-18-5, Doses [Carcinogen]: 100 MG/KG ONCE, Doses [Promoter]: 0, 10 PPM (0.5 MG/KG/D) 2 MO POST CARCINOGEN DOSE AND CONTINUING FOR 8 MO (STUDY DURATION: 12 MO), Route [Carcinogen]: INTRAPERITONEAL, Route [Promoter]: ORAL, Species: RAT, Strain/Sex: CD-1/FEMALE
  outcome: liver: carcinoma/neoplastic nodules
Carcinogen: DIETHYLNITROSAMINE, 55-18-5, Doses [Carcinogen]: 100 MG/KG ONCE, Doses [Promoter]: 0, 10 PPM (0.5 MG/KG/D) 2 MO POST CARCINOGEN DOSE AND CONTINUING FOR 8 MO (STUDY DURATION: 12 MO), Route [Carcinogen]: INTRAPERITONEAL, Route [Promoter]: ORAL, Species: RAT, Strain/Sex: CD-1/MALE
  outcome: liver: carcinoma/neoplastic nodules
Carcinogen: DIETHYLNITROSAMINE, 55-18-5, Doses [Carcinogen]: 200 MG/KG ONCE, Doses [Promoter]: 0, 160-210 UG/KG BW DAILY FROM RELEASE PELLETS FOR 30 WK BEGINNING 2 WK POST CARCINOGEN DOSE (STUDY DURATION: 30 WK), Route [Carcinogen]: INTRAPERITONEAL, Route [Promoter]: SUBCUTANEOUS, Species: RAT, Strain/Sex: WISTAR/FEMALE
  outcome: liver: hepatocellular carcinoma

## COc1c2occc2cc2ccc(=O)oc12
Carcinogen: 4-(Methylnitrosamino)-1-(3-pyridyl)-1-butanone (NNK), 64091-91-4, Doses [Carcinogen]: Once, 2 mg/0.1 ml saline/mouse on first day, study duration 32 wks, Doses [Carcinogen]: Once, 2 mg/0.1 ml saline/mouse on first day, study duration 32 wks, Doses [Promoter]: 100 ppm in diet from wks 2-16, study duration 32 wks, Route [Carcinogen]: Intraperitoneal, Route [Promoter]: Oral, Species: Mouse, Strain/Sex: A/J/Female
  outcome: lung: adenoma (2.15 vs 1.54, not significant)
Carcinogen: 4-(Methylnitrosamino)-1-(3-pyridyl)-1-butanone (NNK), 64091-91-4, Doses [Carcinogen]: Once, 2 mg/0.1 ml saline/mouse on first day, study duration 32 wks, Doses [Carcinogen]: Once, 2 mg/0.1 ml saline/mouse on first day, study duration 32 wks, Doses [Promoter]: 100 ppm in diet from wks16-32, study duration 32 wks, Route [Carcinogen]: Intraperitoneal, Route [Promoter]: Oral, Species: Mouse, Strain/Sex: A/J/Female
  outcome: lung: adenoma and adenocarcinoma (7.31 vs 6.78, not significant)

## C=CCc1ccc(O)c(OC)c1
Carcinogen: 1,2-DIMETHYLHYDRAZINE, 57-14-7 1-METHYL-1-NITROSOUREA, 684-93-5, Carcinogen: 1,2-DIMETHYLHYDRAZINE, 57-14-7 1-METHYL-1-NITROSOUREA, 684-93-5, Doses [Carcinogen]: 40 MG/KG 1,2-DIMETHYLHYDRAZINE IN 0.9% NACL SUBCUTANEOUS 3/WK IN FIRST WK FOLLOWED BY 20 MG 1-METHYL-1-NITROSOUREA/5 ML, Doses [Promoter]: 0, 0.8% IN DIET FOR 48 WK ADMINISTERED 1 WK POST CARCINOGEN DOSE (STUDY DURATION: 52 WK), Route [Carcinogen]: SUBCUTANEOUS, INTRAPERITONEAL, Route [Promoter]: ORAL, Species: RAT, Strain/Sex: F344/MALE
  outcome: forestomach: papilloma

## CCCCCCCC/C=C/CCCCCCCC(=O)OCCOCC(OCCO)C1OCC(OCCO)C1OCCO (configuration not stated)
Carcinogen: 7,12-DIMETHYLBENZ(A)ANTHRACENE, Doses [Carcinogen]: TOP, Route [Carcinogen]: DERMAL, Route [Promoter]: DERMAL, Species: MOUSE, Strain/Sex: FEMALE
  outcome: integumentary system (skin)
